Laboratory results published in patent publication US20240150321A1, “PYRAZOLYLSULFONAMIDE COMPOUNDS AND THEIR USE IN THERAPY” (HOTSPOT THERAPEUTICS, INC., priority 2022, published 2024).
Like-named read-outs stand apart in the source and are kept apart here.

What was measured:
[1] = test system: NF-kB reporter in Jurkat cells; assay: NF-kB reporter assay in Jurkat cells stimulated with aCD3/aCD28/PMA; assay type: cell-based; conditions: read-out: NF-kB Reporter Assay IC50
Method in brief: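 Jurkat cells (25,000/well, serum-free RPMI) were pre-incubated 1 h at 37° C with serially diluted compound, then stimulated 4 h with aCD3/aCD28/PMA at final […]. NF-kB reporter activity was read by One-Glo luminescence; IC50 values reported.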

Avi-tagged FL MALT-1 = Avi-tagged FL MALT-1 (Homo sapiens (Human), UniProt Q9UDY8); assay: MALT-1 Fluorogenic Peptide Cleavage Assay (MALT1 inhibition assay); assay type: biochemical; conditions: Ac-LRSR-AMC peptide substrate, 30 min pre-incubation, 90 min reaction at room temperature
Method in brief: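 Full-length Avi-tagged human MALT-1 (40 nM working stock) pre-incubated 30 min at RT with compound in 25 mM HEPES pH 6.89, 660 mM sodium citrate, 1 mM TCEP, […], 0.05% CHAPS, 2% DMSO. Ac-LRSR-AMC added at Km (50 μM working stock) or 10×Km (280 μM working stock); 90 min at RT, AMC fluorescence (ex 342/em 441 nm), IC50 from % inhibition curves.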

[2] = Homo sapiens, Jurkat cells, 1 hr compound pre-incubation, aCD3/aCD28/PMA stimulation 4 hr, One-Glo readout
[3] = Jurkat cells, 1 hr compound pre-incubation, aCD3/aCD28/PMA stimulation 4 hr, One-Glo readout

Sequence of Avi-tagged FL MALT-1 (Q9UDY8 whole entry): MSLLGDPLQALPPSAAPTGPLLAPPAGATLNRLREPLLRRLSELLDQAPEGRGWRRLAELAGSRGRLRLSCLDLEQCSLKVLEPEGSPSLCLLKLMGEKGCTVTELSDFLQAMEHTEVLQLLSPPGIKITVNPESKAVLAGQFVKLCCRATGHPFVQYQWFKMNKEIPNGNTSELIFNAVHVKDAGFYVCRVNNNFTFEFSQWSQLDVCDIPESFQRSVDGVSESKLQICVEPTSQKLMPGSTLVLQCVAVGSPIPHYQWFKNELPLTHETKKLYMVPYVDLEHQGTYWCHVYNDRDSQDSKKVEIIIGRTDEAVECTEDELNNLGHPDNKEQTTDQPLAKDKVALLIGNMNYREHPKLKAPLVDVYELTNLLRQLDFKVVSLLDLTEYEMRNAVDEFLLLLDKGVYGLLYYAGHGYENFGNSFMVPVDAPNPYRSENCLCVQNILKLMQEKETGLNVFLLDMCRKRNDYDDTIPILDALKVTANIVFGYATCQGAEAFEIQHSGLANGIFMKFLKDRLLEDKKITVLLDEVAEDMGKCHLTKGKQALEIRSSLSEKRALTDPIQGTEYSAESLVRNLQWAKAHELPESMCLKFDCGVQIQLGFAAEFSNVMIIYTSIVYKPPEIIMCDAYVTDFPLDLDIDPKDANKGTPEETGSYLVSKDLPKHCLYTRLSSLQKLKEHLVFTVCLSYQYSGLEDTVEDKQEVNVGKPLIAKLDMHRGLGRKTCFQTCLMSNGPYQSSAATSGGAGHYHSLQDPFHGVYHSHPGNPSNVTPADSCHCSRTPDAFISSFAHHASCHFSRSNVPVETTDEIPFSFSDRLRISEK

| IC50 [1, 2] [nM] | IC50 (Avi-tagged FL MALT-1) [nM] | IC50 [1, 3] [nM] | Compound | IC50 ([1]; Homo sapiens, Jurkat) [nM] |
| --- | --- | --- | --- | --- |
| < 400 | > 2500 | – | Cn1ncc2cccc(NS(=O)(=O)c3cnn(-c4cc(N5CC(C)(C)C5)ccn4)c3)c21 [Compound I-367] | – |
| < 400 | > 2500 | – | Cn1ncc2cccc(NS(=O)(=O)c3cnn(-c4cc(N5CC6(CC6)C5)ccn4)c3)c21 [Compound I-368, 1-(4-{5-azaspiro[2.3]hexan-5-yl}pyridin-2-yl)-N-(1-methylindazol-7-yl)pyrazole-4-sulfonamide] | – |
| < 400 | > 2500 | – | COc1ccc2cnn(C)c2c1NS(=O)(=O)c1cnn(-c2cc(N3CC4(CC4)C3)ccn2)c1 [Compound I-371, 1-(4-(5-azaspiro[2.3]hexan-5-yl)pyridin-2-yl)-N-(6-methoxy-1-methyl-1H-indazol-7-yl)-1H-pyrazole-4-sulfonamide] | – |
| < 400 | > 2500 | – | Cn1ncc2cccc(NS(=O)(=O)c3cnn(-c4cc(C5CC(O)C5)ccn4)c3)c21 (stereo not drawn) [Compound I-374, 1-(4-(3-hydroxycyclobutyl)pyridin-2-yl)-N-(1-methyl-1H-indazol-7-yl)-1H-pyrazole-4-sulfonamide] | – |
| < 400 | > 2500 | – | Cn1ncc2cccc(NS(=O)(=O)c3cnn(-c4cc(N5CC6CC6C5)ccn4)c3)c21 (stereo not drawn) [Compound I-375, 1-(4-(3-Azabicyclo[3.1.0]Hexan-3-yl)Pyridin-2-yl)-N-(1-Methyl-1H-Indazol-7-yl)-1H-Pyrazole-4-Sulfonamide] | – |
| – | > 2500 | < 400 | Cn1ncc2cccc(NS(=O)(=O)c3cnn(-c4cc(C5(F)CC(F)C5)ccn4)c3)c21 (stereo not drawn) [Compound I-376, 1-(4-(1,3-difluorocyclobutyl)pyridin-2-yl)-N-(1-methyl-1H-indazol-7-yl)-1H-pyrazole-4-sulfonamide] | – |
| < 400 | > 2500 | – | COc1ncc2cnn(C)c2c1NS(=O)(=O)c1cnn(-c2cc(N3CC4(CC4)C3)ccn2)c1 [Compound I-386, 1-(4-(5-azaspiro[2.3]hexan-5-yl)pyridin-2-yl)-N-(6-methoxy-1-methyl-1H-pyrazolo[4,3-c]pyridin-7-yl)-1H-pyrazole-4-sulfonamide] | – |
| < 400 | > 2500 | – | CC1CCN(c2ccnc(-n3cc(S(=O)(=O)Nc4cccc5cnn(C)c45)cn3)c2)CC1 [Compound I-390, N-(1-methylindazol-7-yl)-1-[4-(4-methylpiperidin-1-yl)pyridin-2-yl]pyrazole-4-sulfonamide] | – |
| < 400 | > 2500 | – | Cn1ncc2cccc(NS(=O)(=O)c3cnn(-c4cc(N5CCCCCC5)ccn4)c3)c21 [Compound I-391, 1-[4-(azepan-1-yl)pyridin-2-yl]-N-(1-methylindazol-7-yl)pyrazole-4-sulfonamide] | – |
| < 400 | > 2500 | – | CC1CC(F)(c2ccnc(-n3cc(S(=O)(=O)Nc4cccc5cnn(C)c45)cn3)c2)C1 (stereo not drawn) [Compound I-394] | – |
| – | > 2500 | < 400 | CC1CC(F)(c2ccnc(-n3cc(S(=O)(=O)Nc4cccc5cnn(C)c45)cn3)c2)C1 (stereo not drawn) [Compound I-395, 1-(4-(1-fluoro-3-methylcyclobutyl)pyridin-2-yl)-N-(1-methyl-1H-indazol-7-yl)-1H-pyrazole-4-sulfonamide] | – |
| < 400 | > 2500 | – | C[C@H]1CCN(c2ccnc(-n3cc(S(=O)(=O)Nc4cccc5cnn(C)c45)cn3)c2)C1 [Compound I-400, N-(1-methylindazol-7-yl)-1-{4-[(3S)-3-methylpyrrolidin-1-yl]pyridin-2-yl} pyrazole-4-sulfonamide] | – |
| < 400 | > 2500 | – | C[C@@H]1CCN(c2ccnc(-n3cc(S(=O)(=O)Nc4cccc5cnn(C)c45)cn3)c2)C1 [Compound I-401, N-(1-methylindazol-7-yl)-1-{4-[(3R)-3-methylpyrrolidin-1-yl]pyridin-2-yl}pyrazole-4-sulfonamide] | – |

The remaining lines, values behind:

| Compound | IC50 [1, 2] [nM] | IC50 (Avi-tagged FL MALT-1) [nM] | IC50 [1, 3] [nM] | IC50 ([1]; Homo sapiens, Jurkat) [nM] |
| --- | --- | --- | --- | --- |
| COc1ccc2cnn(C)c2c1NS(=O)(=O)c1cnn(-c2cc(N3CC(C)C3)ccn2)c1 [Compound I-369] | < 400 | > 2500 | – | – |
| COc1ccc2cnn(C)c2c1NS(=O)(=O)c1cnn(-c2cc(N3CC(C)(C)C3)ccn2)c1 [Compound I-370, 1-[4-(3,3-dimethylazetidin-1-yl)pyridin-2-yl]-N-(6-methoxy-1-methylindazol-7-yl)pyrazole-4-sulfonamide] | < 400 | > 2500 | – | – |
| COc1ccc2cnn(C)c2c1NS(=O)(=O)c1cnn(-c2cc(N3CCCCC3)ccn2)c1 [Compound I-372] | < 400 | 1000 to 2500 | – | – |
| COc1ccc2cnn(C)c2c1NS(=O)(=O)c1cnn(-c2cc(N3CCC3)ccn2)c1 [Compound I-373, 1-(4-(azetidin-1-yl)pyridin-2-yl)-N-(6-methoxy-1-methyl-1H-indazol-7-yl)-1H-pyrazole-4-sulfonamide] | – | ≤ 400 | – | < 400 |
| O=S(=O)(c1cnn(-c2cc(C(F)(F)F)ccn2)c1)N1CCCn2ncc3cccc1c32 [Compound I-379, 1-((1-(4-(trifluoromethyl)pyridin-2-yl)-1H-pyrazol-4-yl)sulfonyl)-1,2,3,4-tetrahydro-[1,4]diazepino[3,2,1-hi]indazole] | – | > 2500 | – | > 2500 |
| [2H]c1nn(C([2H])([2H])[2H])c2c(NS(=O)(=O)c3cnn(-c4cc(C(C)(F)F)ccn4)c3)cccc12 [Compound I-380, 1-(4-(1,1-difluoroethyl)pyridin-2-yl)-N-(1-(methyl-d3)-1H-indazol-7-yl-3-d)-1H-pyrazole-4-sulfonamide] | < 400 | 1000 to 2500 | – | – |
| COc1ccc2cnn(C)c2c1NS(=O)(=O)c1cnn(-c2cc(N3CCCC3)ccn2)c1 [Compound I-381, N-(6-methoxy-1-methylindazol-7-yl)-1-[4-(pyrrolidin-1-yl)pyridin-2-yl]pyrazole-4-sulfonamide] | < 400 | 400 to 1000 | – | – |
| Cn1ncc2cccc(NS(=O)(=O)c3cnn(-c4cc(C(C)(C)C#N)ccn4)c3)c21 [Compound I-382, 1-(4-(2-cyanopropan-2-yl)pyridin-2-yl)-N-(1-methyl-1H-indazol-7-yl)-1H-pyrazole-4-sulfonamide] | < 400 | > 2500 | – | – |
| Cn1ncc2cccc(NS(=O)(=O)c3cnn(-c4cc(C5(F)CC(F)(F)C5)ccn4)c3)c21 [Compound I-383, N-(1-methylindazol-7-yl)-1-[4-(1,3,3-trifluorocyclobutyl)pyridin-2-yl]pyrazole-4-sulfonamide] | < 400 | > 2500 | – | – |
| COc1ccc2cnn(C)c2c1NS(=O)(=O)c1cnn(-c2cc(N3CCOCC3)ccn2)c1 [Compound I-384] | < 400 | > 2500 | – | – |
| COc1ncc2cnn(C)c2c1NS(=O)(=O)c1cnn(-c2cc(N3CC(C)(C)C3)ccn2)c1 [Compound I-385] | < 400 | > 2500 | – | – |
| COc1ncc2cnn(C)c2c1NS(=O)(=O)c1cnn(-c2cc(N3CCCCC3)ccn2)c1 [Compound I-387, N-(6-methoxy-1-methyl-1H-pyrazolo[4,3-c]pyridin-7-yl)-1-(4-(piperidin-1-yl)pyridin-2-yl)-1H-pyrazole-4-sulfonamide] | < 400 | > 2500 | – | – |
| COc1ncc2cnn(C)c2c1NS(=O)(=O)c1cnn(-c2cc(N3CCC3)ccn2)c1 [Compound I-388, 1-[4-(azetidin-1-yl)pyridin-2-yl]-N-{6-methoxy-1-methylpyrazolo[4,3-c]pyridin-7-yl}pyrazole-4-sulfonamide] | < 400 | 400 to 1000 | – | – |
| Cn1ncc2cccc(NS(=O)(=O)c3cnn(-c4cc(N5CC6CC(C6)C5)ccn4)c3)c21 [Compound I-389, 1-(4-(3-Azabicyclo[3.1.1]Heptan-3-yl)Pyridin-2-yl)-N-(1-Methyl-1H-Indazol-7-yl)-1H-Pyrazole-4-Sulfonamide] | < 400 | > 2500 | – | – |
| COc1ccc2cnn(C)c2c1NS(=O)(=O)c1cnn(-c2cc(N3CCCCCC3)ccn2)c1 [Compound I-392] | < 400 | > 2500 | – | – |
| O=S(=O)(c1cnn(-c2cc(C(F)(F)F)ccn2)c1)N1CCCc2ccc3cn[nH]c3c21 [Compound I-393, 9-((1-(4-(trifluoromethyl)pyridin-2-yl)-1H-pyrazol-4-yl)sulfonyl)-6,7,8,9-tetrahydro-1H-pyrazolo[4,3-h]quinoline] | > 2500 | > 2500 | – | – |
| O=S(=O)(c1cnn(-c2cc(C(F)(F)F)ccn2)c1)N1CCCCn2ncc3cccc1c32 [Compound I-396, 1-((1-(4-(trifluoromethyl)pyridin-2-yl)-1H-pyrazol-4-yl)sulfonyl)-2,3,4,5-tetrahydro-1H-[1,4]diazocino[3,2,1-hi]indazole] | – | > 2500 | – | > 2500 |
| COc1ncc2cnn(C)c2c1NS(=O)(=O)c1cnn(-c2cc(N3CC(C)C3)ccn2)c1 [Compound I-397] | < 400 | 1000 to 2500 | – | – |
| COc1ncc2cnn(C)c2c1NS(=O)(=O)c1cnn(-c2cc(N3CCCC3)ccn2)c1 [Compound I-398, N-{6-methoxy-1-methylpyrazolo[4,3-c]pyridin-7-yl}-1-[4-(pyrrolidin-1-yl)pyridin-2-yl]pyrazole-4-sulfonamide] | < 400 | 400 to 1000 | – | – |
| COC1CC(c2ccnc(-n3cc(S(=O)(=O)Nc4cccc5cnn(C)c45)cn3)c2)C1 (stereo not drawn) [Compound I-399, 1-(4-(3-methoxycyclobutyl)pyridin-2-yl)-N-(1-methyl-1H-indazol-7-yl)-1H-pyrazole-4-sulfonamide] | < 400 | > 2500 | – | – |
